In patent US20210386877A1, “RADIOTHERAPEUTIC COMBINATION THERAPY FOR THE TREATMENT OF CANCER” (Andarix Pharmaceuticals, Inc., priority 2019, published 2021):
*1 amine or outer side, *2 acyl side, *3 side chain or, on linkers, in order; H or OH if unused. Where a SMILES comes first, the peptide text is derived from it. Bridges are numbered along the chain shown (N, C = ends). Roman numbers before positions name the chains, in order. [ ]: non-standard residue; d: D form. ξ: configuration not given here. Phe(4-NH2) = Nc1ccc(C[C@H](N)C(=O)O)cc1; NMehCys = CN[C@@H](CCS)C(=O)O; Thr(3ξ) = CC(O)[C@H](N)C(=O)O; Dap = NC[C@H](N)C(=O)O; X1 = O=C(C[*:1])[*:2]

Key:
SSTR = settings: P2045 radiolabeled with radioactive isotopes of rhenium; versus Depreotide; cited from earlier work
[1] = P2045 radiolabeled with radioactive isotopes of rhenium; versus Depreotide; cited from earlier work
[2] = intravenously, 1.5 mg/m^2, daily×5, every 21 days; cited from earlier work
SSTR2 = SSTR2 expression in small cell cell lines after 24 hours of incubation (FIG. 2, FIG. 3); format: cell-based; settings: H69, H187 and H417 cell lines, 3 and 5 mM valproic acid, versus beta-actin (control)
Procedure: FIG. 3 graphically quantifies the expression of SSTR2 in small cell cell lines after 24 hours of incubation with 3 and 5 mM valproic acid versus the demethylating agent, Decitabine.
FIG. 3 graphically quantifies the expression of SSTR2 […].

[3] = cited from earlier work

## CC(O)[C@H](NC(=O)[C@H](CS)NC(=O)[C@H](Cc1ccc(N)cc1)NC(=O)[C@@H](N)CNC(=O)CSCC[C@H]1C(=O)N[C@@H](Cc2ccc(O)cc2)C(=O)N[C@H](Cc2c[nH]c3ccccc23)C(=O)N[C@@H](CCCCN)C(=O)N[C@@H](C(C)O)C(=O)N[C@@H](Cc2ccccc2)C(=O)N1C)C(=O)N[C@@H](CO)C(=O)O (stereo partly drawn) [P2045, cyclo-[Tyr-(D-Trp)-Lys-Thr-Phe-(N-Me)Hcy]CH2CO-β-Dap-Phe(4-NH2)-Cys-Thr-Ser-OH)]] (I: cyclo(F[NMehCys]Y[dW]K[Thr(3ξ)]) / II: H-[Dap][Phe(4-NH2)]C[Thr(3ξ)]S-OH; linker I:2-II:1 via X1)
SSTR
  SSTR affinity: retains the SSTR affinity of Depreotide
[1]
  kidney and whole body retention: lower kidney and whole body retention

## CC[C@@]1(O)C(=O)OCc2c1cc1n(c2=O)Cc2cc3c(CN(C)C)c(O)ccc3nc2-1 [topotecan]
[2]
  most common toxicities: hematologic (grade 4 neutropenia, thrombocytopenia and grade 3/4 anemia)

## CCCC(CCC)C(=O)O [valproic acid]
SSTR2
  SSTR2 expression: upregulation of SSTR2
[3]
  solubility in organic solvents: very soluble
